Test results taken from ChEMBL document CHEMBL1201862, “PubChem BioAssay data set” (2004).
Calls of active or inactive are those of the source.

What was measured:
[1] = target: NAD-dependent protein deacylase sirtuin-5, mitochondrial (Homo sapiens, UniProt Q9NXA8); test: SIRT5 desuccinylase inhibitors, dose response, biochemical, fluorescence imaging, cherry-pick, set 5 (AID 720591);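 further: desuccinylation of succinyl peptide AMC substrate read as fluorescence after trypsin release; potency of inhibitors that lower fluorescence and may act on trypsin instead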
NAD-dependent protein deacylase sirtuin-5, mitochondrial, sequence (Q9NXA8 whole entry): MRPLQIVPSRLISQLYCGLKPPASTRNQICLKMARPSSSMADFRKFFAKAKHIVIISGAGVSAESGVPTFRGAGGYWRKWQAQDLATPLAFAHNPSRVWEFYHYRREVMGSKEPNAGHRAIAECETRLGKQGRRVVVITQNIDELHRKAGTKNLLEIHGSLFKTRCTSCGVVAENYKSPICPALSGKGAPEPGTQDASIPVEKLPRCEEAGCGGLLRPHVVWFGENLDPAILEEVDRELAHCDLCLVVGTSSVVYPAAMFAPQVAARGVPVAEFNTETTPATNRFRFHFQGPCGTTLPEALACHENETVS

Paired box protein Pax-8 = Paired box protein Pax-8 (Homo sapiens, UniProt Q06710); test: inhibitors of PAX8-driven TPO luciferase reporter, dose response, RMG-I cells, cherry-pick (AID 687027); assay type: functional, cell-based;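 further: luciferase reporter driven by Pax8 target thyroperoxidase promoter measured by SteadyGlo luminescence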
Paired box protein Pax-8, sequence (Q06710 whole entry): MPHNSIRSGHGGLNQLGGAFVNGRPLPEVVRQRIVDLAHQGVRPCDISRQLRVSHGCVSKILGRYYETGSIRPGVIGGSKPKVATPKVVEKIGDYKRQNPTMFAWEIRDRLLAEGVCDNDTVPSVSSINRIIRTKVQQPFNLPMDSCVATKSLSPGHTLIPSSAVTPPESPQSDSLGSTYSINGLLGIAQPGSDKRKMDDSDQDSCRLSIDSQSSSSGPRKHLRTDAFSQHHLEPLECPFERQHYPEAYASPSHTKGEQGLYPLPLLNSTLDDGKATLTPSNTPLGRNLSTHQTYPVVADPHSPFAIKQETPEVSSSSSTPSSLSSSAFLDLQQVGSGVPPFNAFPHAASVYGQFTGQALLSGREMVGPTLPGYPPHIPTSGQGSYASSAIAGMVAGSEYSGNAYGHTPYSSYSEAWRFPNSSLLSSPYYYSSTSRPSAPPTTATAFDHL

[2] = inhibitors of PGC1a acetylation in cells, dose response, cell-based, cherry-picked samples (AID 720514); assay type: functional;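 further: potency may reflect raised or lowered acetylation signal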
[3] = NIH:OVCAR-3 ovarian cancer cell cytotoxicity, dose response, PAX8 inhibitor project, plate reader, dry powder samples (AID 743044); assay type: functional, cell-based
[4] = IGROV1 ovarian cancer cell cytotoxicity, dose response, PAX8 inhibitor project, plate reader, dry powder samples (AID 743043); assay type: functional, cell-based; conditions: IGROV-1
[5] = non-specific cell cytotoxicity, dose response, cytotoxicity control for PAX8 inhibitor project, plate reader, dry powder samples (AID 743021); assay type: functional, cell-based
[6] = cytotoxicity in OVCAR8 ovarian cancer cells, dose response, PAX8 project, cell-based, plate reader, dry powder samples (AID 743197); assay type: functional; conditions: OVCAR-8
[7] = P. falciparum Dd2 growth inhibitors, dose response, SYBR Green, cherry-picked samples (AID 1159567); assay type: functional, cell-based
[8] = HepG2 cell cytotoxicity, dose response, cytotoxicity control, cherry-picked samples (AID 1159577); assay type: functional, cell-based
[9] = A549 cell cytotoxicity, dose response, cytotoxicity control, 24 h, CellTiter-Glo luminescence, cherry-picks (AID 1053115); assay type: functional, cell-based; conditions: A549, 24 h

O=C(NC(c1ccc(Cl)cc1)c1cnccn1)C1CCN(Cc2ccc(Cl)cc2)CC1 (stereo not given)
AC50 [1]: > 30 µM (inactive)

COc1ccccc1-c1ccc([C@@H]2[C@@H]3CN(S(=O)(=O)c4ccc(-c5ccccc5)cc4)C[C@H]2N3)cc1
AC50 (Paired box protein Pax-8): 23.3 µM (active) | AC50 [2]: 9.34 µM (active) | AC50 [3]: 33.6 µM (active) | AC50 [4]: 49.5 µM (active) | AC50 [5]: 0.302 µM (active) | AC50 [6]: 56 µM (active) | AC50 [7]: 2.6 µM (active) | AC50 [8]: 10.6 µM (active)

O=C(Nc1ccc2c(c1)[C@@H]1C[C@@H](CC(=O)N3CCc4ccccc4C3)O[C@@H](CO)[C@@H]1O2)Nc1ccccc1F
AC50 [9]: > 60 µM (inactive)
